The text below walks through data of patent publication US10030020B2, “Spirocycle compounds and methods of making and using same” (Abide Therapeutics, Inc., priority 2016, dated 2018).

Bounds are passed on as bounds.

In general, IC50 refers to the concentration that gives 50% inhibition. The low end stands for greater potency, the high end for weaker potency.

In assay [1] the target is T1, MAGL (Mus musculus (Mouse), UniProt O35678). Briefly: In vitro competitive activity-based protein profiling (mouse brain membrane fraction or cell lysates), MAGL band. It is filed as biochemical. To be noted: mouse proteome; for inhibition at 1 µM: read-out: MAGL % Inh 1 μM (mouse); for IC50: competitive ABPP. On the procedure:
In Vitro Competitive Activity-Based Protein Profiling.
Proteomes (mouse brain membrane fraction or cell lysates) (50 μL, 1.0 mg/mL total protein concentration) were preincubated with varying concentrations of inhibitors at 37° C. After 30 min, FP—Rh (1.0 μL, 50 μM in DMSO) was added and the mixture was incubated for another 30 min at 37° C. Reactions were quenched with SDS loading buffer (50 μL-4×) and run on SDS-PAGE.

Assay [2] concerns the target T2, ABHD6 (Mus musculus (Mouse), UniProt Q8R2Y0). Briefly: In vitro competitive activity-based protein profiling (mouse brain membrane fraction or cell lysates), ABHD6 band. It is filed as biochemical. The following applies: mouse proteome; for inhibition at 1 µM: read-out: ABHD6 % Inh 1 μM (mouse); for IC50: competitive ABPP. The gist of the method:
(§1)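 Competitive ABPP: proteome 1.0 mg/mL protein + inhibitor, 30 min, 37° C; FP-Rh probe (stock 50 μM in DMSO) added, 30 min, 37° C; SDS quench, SDS-PAGE, fluorescent band intensity read.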

Assay [3] concerns the target T3, FAAH (Mus musculus (Mouse), UniProt O08914). Briefly: In vitro competitive activity-based protein profiling (mouse brain membrane fraction or cell lysates), FAAH band. It is filed as biochemical. The following applies: mouse proteome; for inhibition at 1 µM: read-out: FAAH % Inh 1 μM (mouse); for IC50: competitive ABPP. An outline of the steps:
as §1

For assay [4], the target named is T1, MAGL. Briefly: Mouse brain proteomes from inhibitor treated mice (oral gavage, sacrificed 4 h after administration, ABPP analysis). To be noted: 5 mg/kg oral gavage. It is filed as in vivo, mouse (C57Bl/6J). An outline of the steps:
(§2)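 Percent inhibition in brain tissue measured by ABPP 4 h after a single oral gavage dose (5 mg/kg) to wild-type C57Bl/6J mice; vehicle was, for example, PEG400/Ethanol/PBS at 7/2/1.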

Assay [5] addresses T3, FAAH. Briefly: Mouse brain proteomes from inhibitor treated mice (oral gavage, sacrificed 4 h after administration, ABPP analysis), FAAH. In kind it is in vivo, mouse (C57Bl/6J). The following applies: 5 mg/kg oral gavage. An outline of the steps:
as §2

Assay [6] deals with T2, ABHD6. Briefly: Mouse brain proteomes from inhibitor treated mice (oral gavage, sacrificed 4 h after administration, ABPP analysis), ABHD6. In kind it is in vivo, mouse (C57Bl/6J). The following applies: 5 mg/kg oral gavage. The gist of the method: as §2

T2 sequence (Q8R2Y0 whole entry): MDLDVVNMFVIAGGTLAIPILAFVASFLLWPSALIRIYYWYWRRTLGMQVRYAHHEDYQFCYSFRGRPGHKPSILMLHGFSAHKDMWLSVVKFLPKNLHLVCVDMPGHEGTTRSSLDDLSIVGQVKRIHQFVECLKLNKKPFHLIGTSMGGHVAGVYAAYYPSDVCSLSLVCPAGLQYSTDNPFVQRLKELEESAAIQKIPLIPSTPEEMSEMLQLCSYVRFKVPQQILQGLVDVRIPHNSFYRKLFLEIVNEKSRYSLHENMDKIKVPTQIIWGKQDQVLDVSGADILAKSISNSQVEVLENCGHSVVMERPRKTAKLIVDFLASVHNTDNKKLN
T3 sequence (O08914 whole entry): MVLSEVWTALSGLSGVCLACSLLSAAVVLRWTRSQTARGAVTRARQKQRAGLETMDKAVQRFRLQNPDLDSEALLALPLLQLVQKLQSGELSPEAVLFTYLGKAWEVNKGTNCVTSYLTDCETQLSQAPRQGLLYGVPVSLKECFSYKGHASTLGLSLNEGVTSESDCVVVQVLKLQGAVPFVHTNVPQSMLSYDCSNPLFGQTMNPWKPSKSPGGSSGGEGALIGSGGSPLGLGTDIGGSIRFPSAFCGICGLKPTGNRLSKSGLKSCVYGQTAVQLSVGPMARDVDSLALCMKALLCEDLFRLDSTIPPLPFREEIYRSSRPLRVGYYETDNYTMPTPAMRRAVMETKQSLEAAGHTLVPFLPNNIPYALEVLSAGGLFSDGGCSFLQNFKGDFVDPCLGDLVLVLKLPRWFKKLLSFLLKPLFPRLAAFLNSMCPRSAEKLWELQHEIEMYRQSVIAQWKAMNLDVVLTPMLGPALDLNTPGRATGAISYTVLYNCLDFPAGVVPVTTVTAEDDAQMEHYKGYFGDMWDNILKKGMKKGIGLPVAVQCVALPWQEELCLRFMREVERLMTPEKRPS
T1 sequence (O35678 whole entry): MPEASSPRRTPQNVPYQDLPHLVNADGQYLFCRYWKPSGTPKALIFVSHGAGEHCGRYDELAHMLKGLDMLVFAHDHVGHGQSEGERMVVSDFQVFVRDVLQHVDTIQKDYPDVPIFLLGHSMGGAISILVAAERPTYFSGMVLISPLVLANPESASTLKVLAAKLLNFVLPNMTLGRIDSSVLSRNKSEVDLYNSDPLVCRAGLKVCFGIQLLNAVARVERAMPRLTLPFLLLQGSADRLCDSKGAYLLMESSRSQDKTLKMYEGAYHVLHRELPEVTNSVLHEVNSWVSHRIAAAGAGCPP

Turning to `CS(=O)(=O)N1CCN(c2cc(CN3CCCC34CCN(C(=O)OC(C(F)(F)F)C(F)(F)F)CC4)cc(C(F)(F)F)c2)CC1` [Example 43, 1,1,1,3,3,3-Hexafluoropropan-2-yl 1-(3-(4-(methylsulfonyl)piperazin-1-yl)-5-(trifluoromethyl)benzyl)-1,8-diazaspiro[4.5]decane-8-carboxylate], the results for the inhibition at 1 µM in assay [1], in assay [2] and in assay [3] were greater than 75%, less than 25% and less than 25%, respectively. For the same compound, the IC50 in assay [1] is less than 100 nM; in assay [2] it was greater than 1000 nM; in assay [3], greater than 1000 nM. Also, in assay [4], the “MAGL % Inh 5 mg/kg (mouse)” value is “## (## is equal to or greater than 25% but less than 75%)”. Also, the “FAAH % Inh 5 mg/kg (mouse)” value in assay [5] is “# (# is <25%)”. Further, the “ABHD6 % Inh 5 mg/kg (mouse)” value in assay [6] is “# (# is <25%)”.
With `O=C(OC(C(F)(F)F)C(F)(F)F)N1CCC2(CCCN2Cc2cc(N3CCC(F)CC3)cc(C(F)(F)F)c2)CC1` [Example 45, 1,1,1,3,3,3-Hexafluoropropan-2-yl 1-(3-(4-fluoropiperidin-1-yl)-5-(trifluoromethyl)benzyl)-1,8-diazaspiro[4.5]decane-8-carboxylate], the IC50 was less than 100 nM in assay [1], greater than 1000 nM in assay [2] and greater than 1000 nM in assay [3]. Besides, the “MAGL % Inh 5 mg/kg (mouse)” value in assay [4] is given as “## (## is equal to or greater than 25% but less than 75%)”. The “FAAH % Inh 5 mg/kg (mouse)” value in assay [5] was “# (# is <25%)”. Moreover, the “ABHD6 % Inh 5 mg/kg (mouse)” value in assay [6] is listed as “# (# is <25%)”.
In the case of `O=C(OC(C(F)(F)F)C(F)(F)F)N1CCC2(CCCN2Cc2cc(N3CC4COCC4C3)cc(C(F)(F)F)c2)CC1` (stereo not drawn) [Example 46, 1,1,1,3,3,3-Hexafluoropropan-2-yl 1-(3-(tetrahydro-1H-furo[3,4-c]pyrrol-5(3H)-yl)-5-(trifluoromethyl)benzyl)-1,8-diazaspiro[4.5]decane-8-carboxylate], the IC50 is less than 100 nM in assay [1], greater than 1000 nM in assay [2] and greater than 1000 nM in assay [3]. Moreover, in assay [4], the “MAGL % Inh 5 mg/kg (mouse)” value is “### (### is ≥75%)”. Also, the “FAAH % Inh 5 mg/kg (mouse)” value in assay [5] was “# (# is <25%)”. Further, the “ABHD6 % Inh 5 mg/kg (mouse)” value in assay [6] was “# (# is <25%)”.
As for `O=C(OC(C(F)(F)F)C(F)(F)F)N1CCC2(CCCN2Cc2cc(N3CCC3)cc(C(F)(F)F)c2)CC1` [Example 47, 1,1,1,3,3,3-Hexafluoropropan-2-yl 1-(3-(azetidin-1-yl)-5-(trifluoromethyl)benzyl)-1,8-diazaspiro[4.5]decane-8-carboxylate], the results for the inhibition at 1 µM in assay [1], in assay [2] and in assay [3] were greater than 75%, less than 25% and less than 25%, respectively. The values for the IC50 in assay [1], in assay [2] and in assay [3] were less than 100 nM, greater than 1000 nM and greater than 1000 nM, respectively. The “MAGL % Inh 5 mg/kg (mouse)” value in assay [4] was “### (### is ≥75%)”. Further, the “FAAH % Inh 5 mg/kg (mouse)” value in assay [5] is listed as “# (# is <25%)”. Moreover, in assay [6], the “ABHD6 % Inh 5 mg/kg (mouse)” value is “# (# is <25%)”.
Regarding `CC1(C)CC2(CCN(C(=O)OC(C(F)(F)F)C(F)(F)F)CC2)CN1Cc1ccc(Cl)cc1` [Example 48, 1,1,1,3,3,3-Hexafluoropropan-2-yl 2-(4-chlorobenzyl)-3,3-dimethyl-2,8-diazaspiro[4.5]decane-8-carboxylate], the inhibition at 1 µM in assay [1] was greater than 75%; in assay [2], no less than 75%; in assay [3] it was less than 25%. Besides, the results for the IC50 in assay [1], in assay [2] and in assay [3] were less than 100 nM, 100 to 1000 nM and greater than 1000 nM, respectively. Besides, in assay [4], the “MAGL % Inh 5 mg/kg (mouse)” value is reported as “### (### is ≥75%)”. Moreover, in assay [5], the “FAAH % Inh 5 mg/kg (mouse)” value is recorded as “# (# is <25%)”. The “ABHD6 % Inh 5 mg/kg (mouse)” value in assay [6] is “## (## is equal to or greater than 25% but less than 75%)”.
For the compound `CC1(C)CC2(CCN(C(=O)OC(C(F)(F)F)C(F)(F)F)CC2)CN1Cc1ccc(Cl)cc1N1CCOCC1` [Example 50, 1,1,1,3,3,3-Hexafluoropropan-2-yl 2-(4-chloro-2-morpholinobenzyl)-3,3-dimethyl-2,8-diazaspiro[4.5]decane-8-carboxylate], the results for the inhibition at 1 µM in assay [1], in assay [2] and in assay [3] were greater than 75%, 25 to 75% and less than 25%, respectively. For the same compound, the half-maximal inhibitory concentration (IC50) was less than 100 nM in assay [1], greater than 1000 nM in assay [2] and greater than 1000 nM in assay [3]. Further, the “MAGL % Inh 5 mg/kg (mouse)” value in assay [4] was “## (## is equal to or greater than 25% but less than 75%)”. For the same compound, the “FAAH % Inh 5 mg/kg (mouse)” value in assay [5] was “# (# is <25%)”. The “ABHD6 % Inh 5 mg/kg (mouse)” value in assay [6] was “# (# is <25%)”.
As for `CC1(C)CC2(CCN(C(=O)OC(C(F)(F)F)C(F)(F)F)CC2)CN1Cc1ccc(C(F)(F)F)cc1N1CCOCC1` [Example 51, 1,1,1,3,3,3-Hexafluoropropan-2-yl 3,3-dimethyl-2-(2-morpholino-4-(trifluoromethyl)benzyl)-2,8-diazaspiro[4.5]decane-8-carboxylate], the figures for the inhibition at 1 µM in assay [1], in assay [2] and in assay [3] were greater than 75%, less than 25% and less than 25%, respectively. In addition, the IC50 in assay [1] was less than 100 nM; in assay [2], greater than 1000 nM; in assay [3], greater than 1000 nM. For the same compound, the “MAGL % Inh 5 mg/kg (mouse)” value in assay [4] is on record as “## (## is equal to or greater than 25% but less than 75%)”. Also, the “FAAH % Inh 5 mg/kg (mouse)” value in assay [5] is “# (# is <25%)”. Besides, the “ABHD6 % Inh 5 mg/kg (mouse)” value in assay [6] is given as “# (# is <25%)”.
Take `CC1(C)CC2(CCN(C(=O)OC(C(F)(F)F)C(F)(F)F)CC2)CN1Cc1ccc(C(F)(F)F)cc1N1CCC2(CCOCC2)C1` [Example 52, 1,1,1,3,3,3-Hexafluoropropan-2-yl 2-(2-(8-oxa-2-azaspiro[4.5]decan-2-yl)-4-(trifluoromethyl)benzyl)-3,3-dimethyl-2,8-diazaspiro[4.5]decane-8-carboxylate]: the results for the inhibition at 1 µM in assay [1], in assay [2] and in assay [3] were greater than 75%, less than 25% and less than 25%, respectively. The IC50 in assay [1] was less than 100 nM; in assay [2] it was greater than 1000 nM; in assay [3], greater than 1000 nM. Moreover, the “MAGL % Inh 5 mg/kg (mouse)” value in assay [4] is “# (# is <25%)”. Besides, in assay [5], the “FAAH % Inh 5 mg/kg (mouse)” value is “# (# is <25%)”. Also, the “ABHD6 % Inh 5 mg/kg (mouse)” value in assay [6] is on record as “# (# is <25%)”.
Turning to `CC1(C)CC2(CCN(C(=O)OC(C(F)(F)F)C(F)(F)F)CC2)CN1Cc1cccc(Cl)c1N1CCOCC1` [Example 54, 1,1,1,3,3,3-Hexafluoropropan-2-yl 2-(3-chloro-2-morpholinobenzyl)-3,3-dimethyl-2,8-diazaspiro[4.5]decane-8-carboxylate], the inhibition at 1 µM was greater than 75% in assay [1], less than 25% in assay [2] and less than 25% in assay [3]. For the same compound, the IC50 is less than 100 nM in assay [1], greater than 1000 nM in assay [2] and greater than 1000 nM in assay [3]. Besides, the “MAGL % Inh 5 mg/kg (mouse)” value in assay [4] is “## (## is equal to or greater than 25% but less than 75%)”. Also, the “FAAH % Inh 5 mg/kg (mouse)” value in assay [5] is recorded as “# (# is <25%)”. In addition, the “ABHD6 % Inh 5 mg/kg (mouse)” value in assay [6] is “# (# is <25%)”.
Turning to `O=C(OC(C(F)(F)F)C(F)(F)F)N1CCC2(CCCN2Cc2ccccc2Cl)CC1` [Example 60, 1,1,1,3,3,3-Hexafluoropropan-2-yl 1-(2-chlorobenzyl)-1,8-diazaspiro[4.5]decane-8-carboxylate], the figures for the inhibition at 1 µM in assay [1], in assay [2] and in assay [3] were greater than 75%, less than 25% and less than 25%, respectively. Further, the IC50 is less than 100 nM in assay [1], greater than 1000 nM in assay [2] and greater than 1000 nM in assay [3]. Also, in assay [4], the “MAGL % Inh 5 mg/kg (mouse)” value is on record as “### (### is ≥75%)”. The “FAAH % Inh 5 mg/kg (mouse)” value in assay [5] is listed as “## (## is equal to or greater than 25% but less than 75%)”. Also, the “ABHD6 % Inh 5 mg/kg (mouse)” value in assay [6] is “# (# is <25%)”.
